Measurements as given in patent US7250413B2, “C-25 carbamate rifamycin derivatives with activity against drug-resistant microbes” (Cumbre Pharmaceuticals Inc., priority 2004, dated 2007).
≈ marks a conversion by molar mass, not a printed value. Where two headings read alike, the source gives them in different places.

Columns and labels:
Experiment in all cases: MIC, microbroth dilution
Format in all cases: cell-based
[1] = tested on: Enterococcus faecalis ATCC29212
Protocol: (§1) Representative compounds were assayed for antimicrobial activity as follows: Minimum Inhibitory Concentrations (“MICs”) were determined by the microbroth dilution method as per NCCLS guidelines (National Committee for Clinical Laboratory Standards, 2000), except that all growth incubations were conducted at 37° C. Bacterial cultures were tested in the following bacteriological media: S. aureus, S. epidermidis, and E. coli in Cation-Adjusted Mueller-Hinton Broth, S. pneumoniae in THY Broth supplemented with 1 mg/mL catalase under 5% CO2 atmosphere, S. pyogenes in THY Broth, E. faecalis in BHI Broth, H. influenzae in BHI Broth supplemented with 0.75 μL of 1 mg/mL NAD and 150 μL of 1 mg/ml hematin per 5 mL, and M smegmatis in Middlebrook Broth plus ADC Enrichment.

[2] = tested on: Mycobacterium smegmatis ATCC700084; settings: Mycolicibacterium smegmatis, ATCC700084; rifS; Middlebrook Broth plus ADC Enrichment, 37° C.; read-out: MIC
Protocol: as §1

[3] = tested on: Staphylococcus aureus ATCC29213
Protocol: as §1

[4] = rifS, BHI Broth, 37° C., read-out: MIC
[5] = rifS, Cation-Adjusted Mueller-Hinton Broth, 37° C., read-out: MIC

Compound | MIC [1, 4] [µg/mL] | MIC [2] [µg/mL] | MIC [3, 5] [µg/mL] | MIC [1] [µg/mL] | MIC [3] [µg/mL]
CO[C@H]1/C=C/O[C@@]2(C)Oc3c(C)c(O)c4c(c3C2=O)C(=O)C(N2CCOCC2)=C(NC(=O)/C(C)=C\C=C\[C@H](C)[C@@H]2OC(C)(C)O[C@@H]([C@@H](C)[C@H](OC(=O)n3ccnc3)[C@@H]1C)[C@@H]2C)C4=O [Example 4] | 0.25 to 62 (≈ 0.286 to 71 µM) | 0.063 to 31 | 0.002 to 1.95 (≈ 0.00229 to 2.23 µM) | – | –
CO[C@H]1/C=C/O[C@@]2(C)Oc3c(C)c(O)c4c(c3C2=O)C(=O)C(N2CCOCC2)=C(NC(=O)/C(C)=C\C=C\[C@H](C)[C@@H]2OC(C)(C)O[C@@H]([C@@H](C)[C@H](OC(=O)n3cc[n+](Cc5ccccc5)c3)[C@@H]1C)[C@@H]2C)C4=O [Example 5, 1-Benzyl-3-(25-O-desacetyl-(carbonyl-cyclic-21,23-(1-methylethylideneacetal) 3-morpholinorifamycin S))-3H-imidazol-1-ium] | 0.25 to 62 | 0.063 to 31 | 0.002 to 1.95 | – | –
CO[C@H]1/C=C/O[C@@]2(C)Oc3c(C)c(O)c4c(c3C2=O)C(=O)C(N2CCOCC2)=C(NC(=O)/C(C)=C\C=C\[C@H](C)[C@H](O)[C@@H](C)[C@@H](O)[C@@H](C)[C@H](OC(=O)N2CCN(C)CC2)[C@@H]1C)C4=O [Example 6, 25-O-Desacetyl-(1-carbonyl-4-methyl-piperazine) 3-morpholino rifamycin S] | 0.25 to 62 (≈ 0.289 to 71.7 µM) | 0.063 to 31 | 0.002 to 1.95 (≈ 0.00231 to 2.25 µM) | – | –
CO[C@H]1/C=C/O[C@@]2(C)Oc3c(C)c(O)c4c(c3C2=O)C(=O)C(N2CCOCC2)=C(NC(=O)/C(C)=C\C=C\[C@H](C)[C@H](O)[C@@H](C)[C@@H](O)[C@@H](C)[C@H](OC(=O)NCC(C)C)[C@@H]1C)C4=O [Example 7, 25-O-Desacetyl-(1-carbonyl-isobutylamino) 3-morpholino rifamycin S] | 0.25 to 62 (≈ 0.298 to 74 µM) | 0.063 to 31 | 0.002 to 1.95 (≈ 0.00239 to 2.33 µM) | – | –
C=CCNC(=O)O[C@H]1[C@H](C)[C@H](O)[C@H](C)[C@@H](O)[C@@H](C)/C=C/C=C(/C)C(=O)NC2=C(N3CCOCC3)C(=O)c3c(c(O)c(C)c4c3C(=O)[C@@](C)(O/C=C/[C@H](OC)[C@H]1C)O4)C2=O [Example 8, 25-O-Desacetyl-(carbonyl-allylamino) 3-morpholino rifamycin S] | 0.25 to 62 (≈ 0.304 to 75.4 µM) | 0.063 to 31 | 0.002 to 1.95 (≈ 0.00243 to 2.37 µM) | – | –
CO[C@H]1/C=C/O[C@@]2(C)Oc3c(C)c(O)c4c(c3C2=O)C(=O)C(N2CCOCC2)=C(NC(=O)/C(C)=C\C=C\[C@H](C)[C@H](O)[C@@H](C)[C@@H](O)[C@@H](C)[C@H](OC(=O)NCc2cccc3ccccc23)[C@@H]1C)C4=O [Example 23, 25-O-Desacetyl-(carbonyl-naphthalen-1-ylmethyl-amino) 3-morpholino rifamycin S] | – | – | – | 0.25 to 62 (≈ 0.271 to 67.2 µM) | 0.002 to 1.95 (≈ 0.00217 to 2.11 µM)
COc1cncc(NC(=O)c2ccc(N3CCNCC3)c(C(F)(F)F)c2)c1 [Example 52, N-(5-Methoxy-pyridin-3-yl)-4-piperazin-1-yl-3-trifluoromethyl-benzamide] | – | – | – | 0.25 to 62 (≈ 0.657 to 163 µM) | 0.002 to 1.95 (≈ 0.00526 to 5.13 µM)
CO[C@H]1/C=C/O[C@@]2(C)Oc3c(C)c(O)c4c(c3C2=O)C(=O)C(N2CCOCC2)=C(NC(=O)/C(C)=C\C=C\[C@H](C)[C@@H]2OC(C)(C)O[C@@H]([C@@H](C)[C@H](OC(=O)N3CCC(=O)CC3)[C@@H]1C)[C@@H]2C)C4=O [Example 54, 25-O-Desacetyl-(carbonyl-N-(4-piperidone)) cyclic-21,23-(1-methylethylideneacetal) 3-morpholino rifamycin S] | – | – | – | 0.25 to 62 (≈ 0.277 to 68.6 µM) | 0.002 to 1.95 (≈ 0.00221 to 2.16 µM)
CO[C@H]1/C=C/O[C@@]2(C)Oc3c(C)c(O)c4c(c3C2=O)C(=O)C(N2CCOCC2)=C(NC(=O)/C(C)=C\C=C\[C@H](C)[C@@H]2OC(C)(C)O[C@@H]([C@@H](C)[C@H](OC(=O)N3CCC(=O)C3)[C@@H]1C)[C@@H]2C)C4=O [Example 61] | – | – | – | 0.25 to 62 (≈ 0.281 to 69.7 µM) | 0.002 to 1.95 (≈ 0.00225 to 2.19 µM)
